pIC50: −log10 of the molar value.
Columns and labels:
Sarcoma 180 solid tumor = assay: Anti-tumor Activity to Sarcoma 180 Solid Tumor; type: in vivo; settings: Mus musculus, iv, 168 h; male ddY mice, s.c. Sarcoma 180, single i.v. injection 24 hours after implantation, tumor volume at 7 days; read-out: ED50 (dose showing T/C=0.5)
Method: Anti-tumor Activity to Sarcoma 180 Solid Tumor
5×10^6 Sarcoma 180 cells were abdominally implanted into a ddY mouse and the cells were collected from the ascites of the mouse 7 days after the implantation. The cells were washed once with a sterilized physiological saline solution and then suspended in a sterilized physiological saline solution to prepare a cell suspension of 5×10^7 cells/ml. 0.1 ml of the cell suspension was subcutaneously implanted into the right axiallary space of male ddY mice weighting 20±2 g.
A test compound was dissolved in a physiological saline solution or a Tween 80-containing physiological saline solution, and 0.1 to 0.2 ml of the solution was intravenously injected to five mice as one group 24 hours after the implatation of the tumor cells.
The anti-tumor activity of the test compound was determined by measuring the major diameter (a) and the minor diameter (b) of the tumor 7 days after the implantation of tumor cells, and the value of (a×b^2 /2), which corresponds to the volume of the tumor, was calculated. The intended anti-tumor activity is represented by a ratio of T/C, in which C indicates the tumor volume of mice of the control group to which no test compound was administered and T indicates the tumor volume of mice of the test group to which the test compound was administered. T/C at each dose given was plotted in a graph in which T/C is shown by an ordinary scale on the vertical axis and a dose is shown by a logarithmic scale on the horizontal axis. The relation between the dose and T/C was determined to be a straight line by the least-squares method. From the regression formula of the straight line thus obtained, the dose of showing T/C=0.5 is calculated to give ED50.

HeLa S3 cells = assay: Growth Inhibition Test on HeLa S3 Cells; type: cell-based; settings: Homo sapiens, 1 hour exposure, then 72 hours incubation at 37° C., Neutral Red staining, read-out: IC50 (concentration which inhibits cell growth by 50%)
Method: Growth Inhibition Test on HeLa S3 Cells
HeLa S3 cells were suspended in an MEM medium containing 10% fetal calf serum and 2 mM glutamine at a concentration of 3×10^4 cells/ml, and 0.1 ml of the cell suspension was put into each well of a 96-well microtiter plate.
After culturing at 37° C. overnight in a carbon dioxide gas incubator, 0.05 ml of a test sample appropriately diluted with the medium was added to each well. The cells were further cultured for one hour in the carbon dioxide gas incubator and the culture supernatant was removed. The residue was washed once with a phosphate buffer saline [PBS(-)] and 0.1 ml of a fresh medium was added to each well, and the cells were further incubated at 37° C. for 72 hours in the carbon dioxide gas incubator. After removal of the supernatant, 0.1 ml of culture medium containing 0.02% Neutral Red was added to each well, and the cells were further incubated at 37° C. for one hour in the carbon dioxide gas incubator to stain the cells. After removal of the culture supernatant, each well was washed once with a physiological saline, and the dye was extracted with 0.001N HCl/30% methanol. Absorbance of the extract at 550 nm was measured with a microplate reader. The cell growth inhibition percentage was calculated according to the following formula from the absorbance of the extract of the cells treated with the test compound in various concentrations and that of intact cells. [formula]
From the cell growth inhibition percentage thus obtained, the concentration of the test compound which inhibits cell growth by 50% (IC50) was determined.

Acute Toxicity = settings: mouse, in vivo, iv; ddY mice, single i.v. injection, 14 days observation, Behrens Kaerber's method
Method: A test compound was intravenously injected once to five ddY mice as one group. […] LD50 was calculated from the death rate of each group according to the Behrens Kaerber's method.

| Structure (SMILES) | ED50 (Sarcoma 180 solid tumor) | pIC50 (HeLa S3 cells) | LD50 at 336 h (Acute Toxicity) |
| --- | --- | --- | --- |
| COC1=CC(=O)C2=C(C1=O)[C@@H](COC(N)=O)[C@@]1(OC)[C@H]3N[C@H]3CN21 [Compound 1, 6-demethylmitomycin A] | 1.6 mg/kg | 6.68 | 2.8 mg/kg |
| COC1=CC(=O)C2=C(C1=O)[C@H](COC(N)=O)[C@@]1(O)[C@@H]3[C@H](CN21)N3C (stereo partly shown) [Compound 2, 6-demethylmitomycin B] | 11 mg/kg | < 5.00 | > 20 mg/kg |
| CO[C@@]12[C@H](COC(N)=O)C3=C(C(=O)C=C(N)C3=O)N1C[C@@H]1N[C@@H]12 [Compound 3, 6-demethylmitomycin C] | 2.6 mg/kg | 5.66 | 9.7 mg/kg |
| CN1[C@H]2[C@@H]1CN1C3=C(C(=O)C(N)=CC3=O)[C@H](COC(N)=O)[C@@]21O (stereo partly shown) [Compound 4, 6-demethylmitomycin D] | 33 mg/kg | < 4.51 | > 100 mg/kg |
| COC1=CC(=O)C2=C(C1=O)[C@@H](COC(N)=O)[C@@]1(OC)[C@@H]3[C@H](CN21)N3C (stereo partly shown) [Compound 5, 6-demethylmitomycin F] | 7.1 mg/kg | 6.89 | 26 mg/kg |
| CO[C@@]12[C@H](COC(N)=O)C3=C(C(=O)C=C(N)C3=O)N1C[C@H]1[C@@H]2N1C (stereo partly shown) [Compound 6, 6-demethylporfiromycin] | 8.4 mg/kg | 5.14 | 18 mg/kg |
| CO[C@@]12[C@H](COC(N)=O)C3=C(C(=O)C(Cl)=C(N)C3=O)N1C[C@@H]1N[C@@H]12 [Compound 7, 6-chloro-6-demethylmitomycin C] |  | 6.26 |  |
| CO[C@@]12[C@H](COC(N)=O)C3=C(C(=O)C(Br)=C(N)C3=O)N1C[C@@H]1N[C@@H]12 [Compound 8, 6-bromo-6-demethylmitomycin C] | 1.6 mg/kg | 6.14 | 3.2 mg/kg |

From US5218126A, “Halogen substituted mitomycin derivatives” (Kyowa Hakko Kogyo Co., Ltd., priority 1990, dated 1993)
